Measurements from patent US20260184675A1, “CHIRAL ISOMERIC SULFITE COMPOUND AND APPLICATION THEREOF” (Chengdu Hanova BioSciences Co., Ltd, priority 2024, published 2026).

How the values were obtained:
[1] = tested on: eggs of Harmonia axyridis; experiment: Effect on hatching of eggs of Harmonia axyridis, egg card immersion; assay type: in vivo; conditions: 100 ppm; for Number of hatched larvae 4 days after insecticide delivery, Replicate 1 / Number of hatched larvae 4 days after insecticide delivery, Replicate 2 / Number of hatched larvae 4 days after insecticide delivery, Replicate 3: Harmonia axyridis egg cards, immersed 30 seconds; for Hatching rate (%), Replicate 1 / Hatching rate (%), Replicate 2 / Hatching rate (%), Replicate 3: Harmonia axyridis eggs, 4 days after delivery
From the text: The eggs of Harmonia axyridis cards (with approximately 20 eggs per card) were purchased from Henan Jiyuan Baiyun Industry Co., Ltd. in Henan Province. The number of eggs on the egg cards was counted as the basic number before insecticide delivery, and 5 cards were used as one treatment, with 3 replicates per treatment. After immersing the egg cards in a 100 ppm insecticide solution for 30 seconds, they were taken out and air dried, then cultivated under moisturizing conditions, and the […] were cultivated at 27° C. 4 days after insecticide delivery, the hatching status of eggs of Harmonia axyridis was investigated, and the prevention and control effect was calculated according to the following formula. [formula] [formula]

eggs of Thrips = experiment: Effect on hatching of eggs of Thrips, leaf disc method; assay type: in vivo; conditions: 100 ppm; for Hatching rate (%): 5 days after insecticide delivery
Experimental: (§1) • (1) Preparation of leaf discs containing eggs: 20 female adult mites of Tetranychus cinnabarinus were transferred onto leaf discs of Vicia faba with a diameter of 2.0 cm (with wetted filter paper at the bottom), then covered it with a lidded culture dish and cultivated under moisturizing conditions, the adult mites were removed within 36 hours and microscopic examination and counting were performed on leaf discs containing eggs. • (2) Investigation of egg population base: Before pesticide soaking, a microscopic examination was conducted on the egg basic number of each leaf disc, with 2 replicates set for each treatment. • (3) Pesticide soaking treatment: The leaf butterflies loaded with mite eggs were soaked in clear water and sulfite compounds for 10 seconds, respectively, then taken out and cultivated under moisturizing conditions. Each treatment should be repeated for no less than 3 times. • (4) Cultivation and observation: The […] were cultivated under normal conditions. Five days after insecticide delivery, the hatching status of mite eggs was investigated. • Note: The temperature and humidity conditions of the constant temperature and humidity incubator after the treatment should be controlled so as to avoid excessive temperature differences, which may cause generation and dripping of condensate water in the culture dish, resulting in abnormal death of eggs due to soaking in water; it is also necessary to ensure sufficient strong ambient light, without directing irradiating the leaves. • (5) Survey of Results: The experimental materials of each treatment group were regularly hydrated and moisturized, and the hatching of eggs was observed. On the 7th day after insecticide delivery, the number of hatched eggs for each treatment was recorded, and the survey of results was recorded in the original notebook. According to the experimental requirements and characteristics of agents, the survey time can be shortened or extended.
(§2) • 1) Surveying and recording the number of hatched eggs for each treatment. • 2) Photographing and recording whether there was any pesticide damage to the leaf discs of Vicia faba. • 3) Recording the developmental status of experimental mite eggs, behavior status of nymph mites, including abnormal phenomena such as delayed or stopped development of mite eggs, difficulty in breaking hull for nymph mites, or painful struggles after hatching, etc. • (6) Calculation method: Based on the survey data, the prevention and control effect of each treatment was calculated according to the following formula, and the calculation results were kept to two decimal places.
This test adopted the method in Test Example 1 of technical section, mainly used leaf disc method to explore the inhibitory effect on hatching of eggs of Thrips by 1-(S,S), 1-(S,R), 1-(R,R), 1-(R,S), 1′-(S,S), 1′-(S,R), 1′-(R,R), 1′-(R,S), compound 1, compound 1′, S-10, R-10, S-10′, R-10′, compound 10, compound 10′, compound 19-(S,S), 19-(S,R), 19-(R,R), 19-(R,S), 19′-(S,S), 19′-(S,R), 19′-(R,R), 19′-(R,S), compound 19, and compound 19′. The concentration of all compounds was 100 ppm.

eggs of Panonychus citri = experiment: Effect on hatching of eggs of Panonychus citri, leaf disc method; assay type: in vivo; conditions: 1 ppm; for Hatching rate (%), Replicate 1 / Hatching rate (%), Replicate 2 / Hatching rate (%), Replicate 3 / Number of hatched larvae 5 days after insecticide delivery, Replicate 1 / Number of hatched larvae 5 days after insecticide delivery, Replicate 2 / Number of hatched larvae 5 days after insecticide delivery, Replicate 3: Panonychus citri eggs; for Hatching rate (%), Replicate 1 / Hatching rate (%), Replicate 2 / Hatching rate (%), Replicate 3: 5 days after delivery; for Number of hatched larvae 5 days after insecticide delivery, Replicate 1 / Number of hatched larvae 5 days after insecticide delivery, Replicate 2 / Number of hatched larvae 5 days after insecticide delivery, Replicate 3: leaf disc
Experimental: as §1, §2
This test adopted the method in Test Example 1 of technical section, mainly used leaf disc method to explore the effect on hatching of eggs of Panonychus citri by compounds 1-(S,S), 1-(S,R), 1-(R,R), 1-(R,S), 1′-(S,S), 1′-(S,R), 1′-(R,R), 1′-(R,S), compound 1, compound 1′, S-10, R-10, S-10′, R-10′, compound 10, compound 10′, compound 19-(S,S), 19-(S,R), 19-(R,R), 19-(R,S), 19′-(S,S), 19′-(S,R), 19′-(R,R), 19′-(R,S), compound 19, and compound 19′. The concentration of all compounds was 1 ppm.

Magnaporthe grisea = assay type: cell-based; conditions: 100 ppm; for Average antifungal rate (%) / Antifungal rate of Magnaporthe grisea (%), Replicate 1 / Antifungal rate of Magnaporthe grisea (%), Replicate 2 / Antifungal rate of Magnaporthe grisea (%), Replicate 3: 96-well plate; for Average antifungal rate (%): average of 3 replicates
[2] = Replicate 1, listed as 1-(S, R)
[3] = Replicate 2, listed as 1-(S, R)
[4] = Replicate 3, listed as 1-(S, R)
[5] = Replicate 1, listed as 1-(S, S)
[6] = Replicate 2, listed as 1-(S, S)
[7] = Replicate 3, listed as 1-(S, S)

For `C[C@@H](COS(=O)OCCF)Oc1ccc(Cl)cc1Cl` (stereo partly drawn) [1-(S,R)], the “Number of hatched larvae 4 days after insecticide delivery, Replicate 1” value ([1]; listed as 1-(S, R)) was 13, the “Number of hatched larvae 4 days after insecticide delivery, Replicate 2” value ([1]; listed as 1-(S, R)) was 14 and the “Number of hatched larvae 4 days after insecticide delivery, Replicate 3” value ([1]; listed as 1-(S, R)) was 14. For the same compound, the “Hatching rate (%), Replicate 1” value ([1]; listed as 1-(S, R)) was 12.04%, the “Hatching rate (%), Replicate 2” value ([1]; listed as 1-(S, R)) was 14.14% and the “Hatching rate (%), Replicate 3” value ([1]; listed as 1-(S, R)) was 13.73%. For the same compound, the “Hatching rate (%)” value (eggs of Thrips; [2]) was 12.06%, the “Hatching rate (%)” value (eggs of Thrips; [3]) was 8.33% and the “Hatching rate (%)” value (eggs of Thrips; [4]) was 10.28%. For the same compound, the “Number of hatched larvae 5 days after insecticide delivery” value (eggs of Thrips; [2]) was 17, the “Number of hatched larvae 5 days after insecticide delivery” value (eggs of Thrips; [3]) was 8 and the “Number of hatched larvae 5 days after insecticide delivery” value (eggs of Thrips; [4]) was 11. For the same compound, the “Hatching rate (%), Replicate 1” value (eggs of Panonychus citri; listed as 1-(S, R)) was 5.83%, the “Hatching rate (%), Replicate 2” value (eggs of Panonychus citri; listed as 1-(S, R)) was 5.75% and the “Hatching rate (%), Replicate 3” value (eggs of Panonychus citri; listed as 1-(S, R)) was 6.06%. For the same compound, the “Number of hatched larvae 5 days after insecticide delivery, Replicate 1” value (eggs of Panonychus citri; listed as 1-(S, R)) was 6, the “Number of hatched larvae 5 days after insecticide delivery, Replicate 2” value (eggs of Panonychus citri; listed as 1-(S, R)) was 5 and the “Number of hatched larvae 5 days after insecticide delivery, Replicate 3” value (eggs of Panonychus citri; listed as 1-(S, R)) was 8. The “inhibitory rate against Magnaporthe grisea (in words)” value (Magnaporthe grisea) was “strong inhibitory rate”, the “Average antifungal rate (%)” value (Magnaporthe grisea) was 82.92% and the “Antifungal rate of Magnaporthe grisea (%), Replicate 1” value (Magnaporthe grisea) was 87.32%. The “Antifungal rate of Magnaporthe grisea (%), Replicate 2” value (Magnaporthe grisea) was 82.96% and the “Antifungal rate of Magnaporthe grisea (%), Replicate 3” value (Magnaporthe grisea) was 78.48%.

With `C[C@@H](COS(=O)OCCF)Oc1ccc(Cl)cc1Cl` (stereo partly drawn) [1-(S,S)] the “inhibitory activity on the hatching of eggs of Harmonia axyridis (in words)” value [1] was “strong inhibitory activities”, the “Number of hatched larvae 4 days after insecticide delivery, Replicate 1” value ([1]; listed as 1-(S, S)) was 0 and the “Number of hatched larvae 4 days after insecticide delivery, Replicate 2” value ([1]; listed as 1-(S, S)) was 0. For the same compound, the “Number of hatched larvae 4 days after insecticide delivery, Replicate 3” value ([1]; listed as 1-(S, S)) was 0, the “Hatching rate (%), Replicate 1” value ([1]; listed as 1-(S, S)) was 0.00% and the “Hatching rate (%), Replicate 2” value ([1]; listed as 1-(S, S)) was 0.00%. The “Hatching rate (%), Replicate 3” value ([1]; listed as 1-(S, S)) was 0.00%, the “inhibitory activity on the hatching of eggs of Thrips (in words)” value (eggs of Thrips) was “strong inhibitory activities” and the “Hatching rate (%)” value (eggs of Thrips; [5]) was 0.00%. For the same compound, the “Hatching rate (%)” value (eggs of Thrips; [6]) was 0.00%, the “Hatching rate (%)” value (eggs of Thrips; [7]) was 0.00% and the “Number of hatched larvae 5 days after insecticide delivery” value (eggs of Thrips; [5]) was 0. The “Number of hatched larvae 5 days after insecticide delivery” value (eggs of Thrips; [6]) was 0, the “Number of hatched larvae 5 days after insecticide delivery” value (eggs of Thrips; [7]) was 0 and the “inhibitory effect on the hatching of eggs of Panonychus citri (in words)” value (eggs of Panonychus citri) was “good inhibitory effects”. For the same compound, the “Hatching rate (%), Replicate 1” value (eggs of Panonychus citri; listed as 1-(S, S)) was 0.00%, the “Hatching rate (%), Replicate 2” value (eggs of Panonychus citri; listed as 1-(S, S)) was 0.00% and the “Hatching rate (%), Replicate 3” value (eggs of Panonychus citri; listed as 1-(S, S)) was 0.00%. For the same compound, the “Number of hatched larvae 5 days after insecticide delivery, Replicate 1” value (eggs of Panonychus citri; listed as 1-(S, S)) was 0, the “Number of hatched larvae 5 days after insecticide delivery, Replicate 2” value (eggs of Panonychus citri; listed as 1-(S, S)) was 0 and the “Number of hatched larvae 5 days after insecticide delivery, Replicate 3” value (eggs of Panonychus citri; listed as 1-(S, S)) was 0. The “inhibitory rate against Magnaporthe grisea (in words)” value (Magnaporthe grisea) was “strong inhibitory rate”, the “Average antifungal rate (%)” value (Magnaporthe grisea) was 97.35% and the “Antifungal rate of Magnaporthe grisea (%), Replicate 1” value (Magnaporthe grisea) was 99.38%. For the same compound, the “Antifungal rate of Magnaporthe grisea (%), Replicate 2” value (Magnaporthe grisea) was 95.02% and the “Antifungal rate of Magnaporthe grisea (%), Replicate 3” value (Magnaporthe grisea) was 97.64%.
